Saturation of receptors data for 1 compound are collected here from US7148193B2, “Compounds that bind to growth hormone receptor” (Antyra, Inc., priority 1997, dated 2006).

Where a SMILES comes first, the peptide text is derived from it. Bridges are numbered along the chain shown (N, C = ends).

The target in this experiment is T1, rGHBP (Rattus norvegicus, UniProt P16310).
T1 construct: 1–48 of GHBP; The 3′ oligo used for this reaction encoded the mutation L43R (CTG→AGA); The second PCR reaction amplified the DNA encoding amino acids 38–260; 6xHis; made in house
T1 sequence (P16310 19-278 isoform P16310-2): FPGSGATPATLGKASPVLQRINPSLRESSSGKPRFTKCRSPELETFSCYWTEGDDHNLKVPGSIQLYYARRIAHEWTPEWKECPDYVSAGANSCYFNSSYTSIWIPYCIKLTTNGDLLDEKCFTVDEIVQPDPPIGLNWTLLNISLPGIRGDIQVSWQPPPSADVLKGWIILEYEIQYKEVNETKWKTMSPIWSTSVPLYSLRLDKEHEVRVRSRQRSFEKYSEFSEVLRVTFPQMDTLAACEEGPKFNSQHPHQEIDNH
Kind of experiment: Time-resolved fluorometric detection (TRFD) of specific bLigand binding to rGHBP and its competition. The note with it: TRFD. As to the method: For this invention, saEu forms a ternary complex with bP and rGHBP (i.e., the rGHBP:bP:saEu complex). As described herein, the TRFD assay is performed using biotinylated GH (bGH) as bLigand. Biotinylated H5-mutant peptides bP#447 (SEQ ID NO:11) and bP#418 (SEQ ID NO:12) are also used as bLigand (see below). The TRFD assay described herein faithfully reports the competition of ligand binding to the active site of rGHR. To perform the TRFD assays, soluble rGHBP is attached to the surface of microtiter wells, then incubated with bP. Unbound bP is than washed away and (sa)Eu is added to complex with receptor bound bP. The rGHBP:bP bound (sa)Eu is then converted into its highly fluorescent state and detected by TRFD.
Wells were coated with rGHBP(100 ng/well) overnight as described. ED50 and IC50 were calculated from analysis of specific bLigand binding to rGHBP. Competitors were added 1 hr prior to addition of bLigand as described.
rGHBP (50–200 μg/ml in 50 mM NaHCO3) was coated onto low-fluorescence MaxiSorp (Nunc) plates (100 μl/well) overnight at 4° C. The plates were blocked with PBS containing 2% non-fat milk and 0.05% BSA for 2 hr at room temperature, followed by three PBS washes. For competitions, serial dilutions of unlabelled growth hormone (0.1 nM-100 nM) or MAb 2C3 (0.67–67 nM) were added to the plates (100 μl/well) and incubated at room temperature for 1–2 hr. Biotinylated peptide or biotinylated GH (10× concentrations) were incubated in blocking buffer for 30 min to decrease non-specific binding. Ten microliters of the 10× concentrated material was added to the plates and incubated at room temperature for 1 hr to overnight.
The plates were then washed five times with Tris-buffered saline (pH 7.5) containing 0.1% Tween-20 (TTBS). To each well, 100 μl of europium-labeled streptavidin in DELFIA assay buffer (100 mM Tris-HCl, pH 7.8; 150 mM NaCl; 0.5% BSA; 0.05% bovine Ig; 0.05% NaN3; 0.01% Tween-20) was added and incubated for 1.5 hr at room temperature. The plates were then washed five times with TTBS and tapped dry. Subsequently, 100 μl of DELFIA enhancement solution (100 mM acetone-potassium hydrogen phthalate, pH 3.2; 15 mM 2-naphtyltrifluoroacetate; […] tri(n-octyl)-phosphine oxide; 0.1% Triton X-100) was added to each well, and the plates were shaken for 10 min at room temperature. Fluorescence of each sample well was measured at 615 nm using a DELFIA 1234 fluorometer (EG&G Wallac). General procedure and references as described by Wallac are available in “Lanthanide labeling for time-resolved fluorometry”: Wallac publication 1244–1126-03.

For `CC(C)C[C@@H]1NC(=O)[C@H](CO)NC(=O)[C@H](CCC(N)=O)NC(=O)[C@@H](NC(=O)[C@H](CC(C)C)NC(=O)[C@H](CC(=O)O)NC(=O)[C@H](CCCCN)NC(=O)[C@H](Cc2ccc(O)cc2)NC(=O)[C@@H](N)CC(=O)O)CSSC[C@@H](C(=O)N[C@@H](C)C(=O)N[C@@H](CCCCN)C(=O)N[C@@H](CCCCN)C(=O)O)NC(=O)[C@H](Cc2c[nH]c3ccccc23)NC(=O)CNC(=O)[C@H](C)NC(=O)[C@H](CC(C)C)NC(=O)[C@H](Cc2c[nH]c3ccccc23)NC(=O)CNC(=O)[C@@H]2CCCN2C(=O)[C@H](Cc2ccc(O)cc2)NC(=O)[C@H]([C@@H](C)O)NC(=O)[C@H](C(C)C)NC(=O)CNC1=O` [H5] (H-DYKDLCQSLGVTYPGWLAGWCAKK-OH; disulfide 6-21; N-terminus and C-terminus assumed), the saturation of receptors result is reported as “could not be saturated”.
